# Laboratory results reported in PubChem BioAssay (NCI).
#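 Cultured in 96-well plates, cells were exposed to test compound for 48 hours across five concentrations. The concentration for full growth arrest is given as TGI.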
# System: HOP-62 NSCLC
# Assay: NCI tumour cell line growth inhibition, 48 h
row,Structure (SMILES),TGI
1,Nc1nccc(-c2c[nH]c3cc(Br)ccc23)n1,> 100 µM

# System: HOP-92 NSCLC
# Assay: NCI tumour cell line growth inhibition, 48 h
row,Structure (SMILES),TGI
1,O=C(O)c1nc2nc(Cl)c(Cl)nc2[nH]1,> 100 µM
2,CN(C)CCNS(=O)(=O)c1ccc(N)cc1,> 100 µM
3,COc1ccc(N=NC(=Nc2ccccc2)c2ccc(N(CCC#N)CCC#N)cc2)cc1,> 100 µM
4,O=C(/C=C/c1ccc2c(c1)OCO2)Cc1nc2ncccc2[nH]c1=O,> 100 µM
5,CC(=O)Nc1nc(NC(C)=O)c2[nH]c(CO)nc2n1,> 100 µM
6,COC(=O)C1CC(C=[N+](C)C)=C(SC)N1C(=O)OCc1ccccc1 (centres undefined),> 100 µM
7,Nc1nccc(-c2c[nH]c3cc(Br)ccc23)n1,63.8 µM

# System: HS 578T breast
# Assay: NCI tumour cell line growth inhibition, 48 h
row,Structure (SMILES),TGI
1,O=C(O)c1nc2nc(Cl)c(Cl)nc2[nH]1,> 100 µM
2,CN(C)CCNS(=O)(=O)c1ccc(N)cc1,> 100 µM
3,COc1ccc(N=NC(=Nc2ccccc2)c2ccc(N(CCC#N)CCC#N)cc2)cc1,> 100 µM
4,O=C(/C=C/c1ccc2c(c1)OCO2)Cc1nc2ncccc2[nH]c1=O,> 100 µM
5,CC(=O)Nc1nc(NC(C)=O)c2[nH]c(CO)nc2n1,> 100 µM
6,COC(=O)C1CC(C=[N+](C)C)=C(SC)N1C(=O)OCc1ccccc1 (centres undefined),> 100 µM
7,Nc1nccc(-c2c[nH]c3cc(Br)ccc23)n1,75.7 µM

# System: HT29 colon
# Assay: NCI tumour cell line growth inhibition, 48 h
row,Structure (SMILES),TGI
1,O=C(O)c1nc2nc(Cl)c(Cl)nc2[nH]1,> 100 µM
2,CN(C)CCNS(=O)(=O)c1ccc(N)cc1,> 100 µM
3,COc1ccc(N=NC(=Nc2ccccc2)c2ccc(N(CCC#N)CCC#N)cc2)cc1,> 100 µM
4,O=C(/C=C/c1ccc2c(c1)OCO2)Cc1nc2ncccc2[nH]c1=O,> 100 µM
5,CC(=O)Nc1nc(NC(C)=O)c2[nH]c(CO)nc2n1,> 100 µM
6,COC(=O)C1CC(C=[N+](C)C)=C(SC)N1C(=O)OCc1ccccc1 (centres undefined),> 100 µM
7,Nc1nccc(-c2c[nH]c3cc(Br)ccc23)n1,44.7 µM

# System: IGROV1 ovarian
# Assay: NCI tumour cell line growth inhibition, 48 h
row,Structure (SMILES),TGI
1,O=C(O)c1nc2nc(Cl)c(Cl)nc2[nH]1,> 100 µM
2,CN(C)CCNS(=O)(=O)c1ccc(N)cc1,> 100 µM
3,COc1ccc(N=NC(=Nc2ccccc2)c2ccc(N(CCC#N)CCC#N)cc2)cc1,89.3 µM
4,O=C(/C=C/c1ccc2c(c1)OCO2)Cc1nc2ncccc2[nH]c1=O,> 100 µM
5,CC(=O)Nc1nc(NC(C)=O)c2[nH]c(CO)nc2n1,> 100 µM
6,COC(=O)C1CC(C=[N+](C)C)=C(SC)N1C(=O)OCc1ccccc1 (centres undefined),> 100 µM
7,Nc1nccc(-c2c[nH]c3cc(Br)ccc23)n1,> 100 µM

# System: K-562 leukemia
# Assay: NCI tumour cell line growth inhibition, 48 h
row,Structure (SMILES),TGI
1,O=C(O)c1nc2nc(Cl)c(Cl)nc2[nH]1,> 100 µM
2,CN(C)CCNS(=O)(=O)c1ccc(N)cc1,> 100 µM
3,COc1ccc(N=NC(=Nc2ccccc2)c2ccc(N(CCC#N)CCC#N)cc2)cc1,> 100 µM
4,O=C(/C=C/c1ccc2c(c1)OCO2)Cc1nc2ncccc2[nH]c1=O,> 100 µM
5,CC(=O)Nc1nc(NC(C)=O)c2[nH]c(CO)nc2n1,> 100 µM
6,COC(=O)C1CC(C=[N+](C)C)=C(SC)N1C(=O)OCc1ccccc1 (centres undefined),> 100 µM
7,Nc1nccc(-c2c[nH]c3cc(Br)ccc23)n1,> 100 µM

# System: KM12 colon
# Assay: NCI tumour cell line growth inhibition, 48 h
row,Structure (SMILES),TGI
1,O=C(O)c1nc2nc(Cl)c(Cl)nc2[nH]1,> 100 µM
2,CN(C)CCNS(=O)(=O)c1ccc(N)cc1,> 100 µM
3,COc1ccc(N=NC(=Nc2ccccc2)c2ccc(N(CCC#N)CCC#N)cc2)cc1,> 100 µM
4,O=C(/C=C/c1ccc2c(c1)OCO2)Cc1nc2ncccc2[nH]c1=O,> 100 µM
5,CC(=O)Nc1nc(NC(C)=O)c2[nH]c(CO)nc2n1,> 100 µM
6,COC(=O)C1CC(C=[N+](C)C)=C(SC)N1C(=O)OCc1ccccc1 (centres undefined),> 100 µM
7,Nc1nccc(-c2c[nH]c3cc(Br)ccc23)n1,80.9 µM

# System: LOX IMVI melanoma
# Assay: NCI tumour cell line growth inhibition, 48 h
row,Structure (SMILES),TGI
1,O=C(O)c1nc2nc(Cl)c(Cl)nc2[nH]1,> 100 µM
2,O=C(/C=C/c1ccc2c(c1)OCO2)Cc1nc2ncccc2[nH]c1=O,> 100 µM
3,CC(=O)Nc1nc(NC(C)=O)c2[nH]c(CO)nc2n1,> 100 µM
4,Nc1nccc(-c2c[nH]c3cc(Br)ccc23)n1,53.4 µM

# System: M14 melanoma
# Assay: NCI tumour cell line growth inhibition, 48 h
row,Structure (SMILES),TGI
1,O=C(O)c1nc2nc(Cl)c(Cl)nc2[nH]1,> 100 µM
2,CN(C)CCNS(=O)(=O)c1ccc(N)cc1,> 100 µM
3,COc1ccc(N=NC(=Nc2ccccc2)c2ccc(N(CCC#N)CCC#N)cc2)cc1,> 100 µM
4,O=C(/C=C/c1ccc2c(c1)OCO2)Cc1nc2ncccc2[nH]c1=O,> 100 µM
5,CC(=O)Nc1nc(NC(C)=O)c2[nH]c(CO)nc2n1,> 100 µM
6,COC(=O)C1CC(C=[N+](C)C)=C(SC)N1C(=O)OCc1ccccc1 (centres undefined),> 100 µM
7,Nc1nccc(-c2c[nH]c3cc(Br)ccc23)n1,43.9 µM

# System: MALME-3M melanoma
# Assay: NCI tumour cell line growth inhibition, 48 h
row,Structure (SMILES),TGI
1,O=C(O)c1nc2nc(Cl)c(Cl)nc2[nH]1,> 100 µM
2,CN(C)CCNS(=O)(=O)c1ccc(N)cc1,> 100 µM
3,O=C(/C=C/c1ccc2c(c1)OCO2)Cc1nc2ncccc2[nH]c1=O,> 100 µM
4,CC(=O)Nc1nc(NC(C)=O)c2[nH]c(CO)nc2n1,> 100 µM
5,COC(=O)C1CC(C=[N+](C)C)=C(SC)N1C(=O)OCc1ccccc1 (centres undefined),> 100 µM
6,Nc1nccc(-c2c[nH]c3cc(Br)ccc23)n1,> 100 µM

# System: MCF7 breast
# Assay: NCI tumour cell line growth inhibition, 48 h
row,Structure (SMILES),TGI
1,O=C(O)c1nc2nc(Cl)c(Cl)nc2[nH]1,> 100 µM
2,CN(C)CCNS(=O)(=O)c1ccc(N)cc1,> 100 µM
3,COc1ccc(N=NC(=Nc2ccccc2)c2ccc(N(CCC#N)CCC#N)cc2)cc1,73 µM
4,O=C(/C=C/c1ccc2c(c1)OCO2)Cc1nc2ncccc2[nH]c1=O,> 100 µM
5,CC(=O)Nc1nc(NC(C)=O)c2[nH]c(CO)nc2n1,> 100 µM
6,COC(=O)C1CC(C=[N+](C)C)=C(SC)N1C(=O)OCc1ccccc1 (centres undefined),> 100 µM
7,Nc1nccc(-c2c[nH]c3cc(Br)ccc23)n1,> 100 µM

# System: MDA-MB-231 breast
# Assay: NCI tumour cell line growth inhibition, 48 h
row,Structure (SMILES),TGI
1,O=C(O)c1nc2nc(Cl)c(Cl)nc2[nH]1,> 100 µM
2,CN(C)CCNS(=O)(=O)c1ccc(N)cc1,> 100 µM
3,COc1ccc(N=NC(=Nc2ccccc2)c2ccc(N(CCC#N)CCC#N)cc2)cc1,59.7 µM
4,O=C(/C=C/c1ccc2c(c1)OCO2)Cc1nc2ncccc2[nH]c1=O,> 100 µM
5,CC(=O)Nc1nc(NC(C)=O)c2[nH]c(CO)nc2n1,> 100 µM
6,COC(=O)C1CC(C=[N+](C)C)=C(SC)N1C(=O)OCc1ccccc1 (centres undefined),> 100 µM
7,Nc1nccc(-c2c[nH]c3cc(Br)ccc23)n1,> 100 µM

# System: MDA-MB-435
# Assay: NCI tumour cell line growth inhibition, 48 h
row,Structure (SMILES),TGI
1,O=C(O)c1nc2nc(Cl)c(Cl)nc2[nH]1,> 100 µM
2,CN(C)CCNS(=O)(=O)c1ccc(N)cc1,> 100 µM
3,COc1ccc(N=NC(=Nc2ccccc2)c2ccc(N(CCC#N)CCC#N)cc2)cc1,> 100 µM
4,O=C(/C=C/c1ccc2c(c1)OCO2)Cc1nc2ncccc2[nH]c1=O,> 100 µM
5,CC(=O)Nc1nc(NC(C)=O)c2[nH]c(CO)nc2n1,> 100 µM
6,COC(=O)C1CC(C=[N+](C)C)=C(SC)N1C(=O)OCc1ccccc1 (centres undefined),> 100 µM
7,Nc1nccc(-c2c[nH]c3cc(Br)ccc23)n1,80.4 µM

# System: MDA-N
# Assay: NCI tumour cell line growth inhibition, 48 h
row,Structure (SMILES),TGI
1,O=C(O)c1nc2nc(Cl)c(Cl)nc2[nH]1,> 100 µM
2,CN(C)CCNS(=O)(=O)c1ccc(N)cc1,> 100 µM
3,COc1ccc(N=NC(=Nc2ccccc2)c2ccc(N(CCC#N)CCC#N)cc2)cc1,> 100 µM
4,O=C(/C=C/c1ccc2c(c1)OCO2)Cc1nc2ncccc2[nH]c1=O,> 100 µM
5,CC(=O)Nc1nc(NC(C)=O)c2[nH]c(CO)nc2n1,> 100 µM
6,COC(=O)C1CC(C=[N+](C)C)=C(SC)N1C(=O)OCc1ccccc1 (centres undefined),> 100 µM
7,Nc1nccc(-c2c[nH]c3cc(Br)ccc23)n1,45.8 µM

# System: MOLT-4 leukemia
# Assay: NCI tumour cell line growth inhibition, 48 h
row,Structure (SMILES),TGI
1,O=C(O)c1nc2nc(Cl)c(Cl)nc2[nH]1,> 100 µM
2,CN(C)CCNS(=O)(=O)c1ccc(N)cc1,> 100 µM
3,COc1ccc(N=NC(=Nc2ccccc2)c2ccc(N(CCC#N)CCC#N)cc2)cc1,> 100 µM
4,O=C(/C=C/c1ccc2c(c1)OCO2)Cc1nc2ncccc2[nH]c1=O,> 100 µM
5,CC(=O)Nc1nc(NC(C)=O)c2[nH]c(CO)nc2n1,> 100 µM
6,COC(=O)C1CC(C=[N+](C)C)=C(SC)N1C(=O)OCc1ccccc1 (centres undefined),> 100 µM
7,Nc1nccc(-c2c[nH]c3cc(Br)ccc23)n1,61.8 µM

# System: NCI-H226 lung
# Assay: NCI tumour cell line growth inhibition, 48 h
row,Structure (SMILES),TGI
1,O=C(O)c1nc2nc(Cl)c(Cl)nc2[nH]1,> 100 µM
2,CN(C)CCNS(=O)(=O)c1ccc(N)cc1,> 100 µM
3,COc1ccc(N=NC(=Nc2ccccc2)c2ccc(N(CCC#N)CCC#N)cc2)cc1,> 100 µM
4,CC(=O)Nc1nc(NC(C)=O)c2[nH]c(CO)nc2n1,> 100 µM
